The values below come from patent US20230322797A1, “SOLID FORMS, PHARMACEUTICAL COMPOSITIONS AND PREPARATION OF HETEROAROMATIC MACROCYCLIC ETHER COMPOUNDS” (Nuvalent, Inc., priority 2022, published 2023).

The nature of this series: Solubility of Compound 1 salts in organic solvents (solvent volumes). Type of series: physicochemical. How it is done:
Preparation of Additional Salts: Additional salts shown in the Table below were prepared using procedures similar to those described above and the solubility of the resulting salts of Compound 1 was evaluated.

SMILES strings stand for the structures. Structures can show the parent of a compound that is named as a salt.

For `CCn1nc(Cl)c2c1-c1cnc(N)c(c1)O[C@H](C)c1cc(F)ccc1-c1nn(C)cc1C2` [MSA salt], the “Solubility, Volume (at 10-20° C.)” value is reported as greater than 400 V (2-MeTHF); 56-60 V (Acetone); greater than 400 V (CPME); 300-400 V (EtOAc); 56-60 V (IPA); 260-300 V (IPAc). Further, the “Solubility, Volume (at 10-20° C.)” value reads like this: (MeCN) 6-8 V; (THF) 60-100 V; (Toluene) greater than 400 V; (t-AmOH) 340-360 V.

As for `CCn1nc(Cl)c2c1-c1cnc(N)c(c1)O[C@H](C)c1cc(F)ccc1-c1nn(C)cc1C2` [HCl salt], the “Solubility, Volume (at 10-20° C.)” value is listed as greater than 400 V (2-MeTHF); 22-24 V (Acetone); greater than 500 V (CPME); greater than 400 V (EtOAc); 8-10 V (IPA); greater than 400 V (IPAc). The “Solubility, Volume (at 10-20° C.)” value is, setting by setting: (MeCN) 8-10 V; (THF) 300-400 V; (Toluene) greater than 400 V; (t-AmOH) 18-20 V.

`CCn1nc(Cl)c2c1-c1cnc(N)c(c1)O[C@H](C)c1cc(F)ccc1-c1nn(C)cc1C2` [Citric Acid salt]: the “Solubility, Volume (at 10-20° C.)” value reads like this: (2-MeTHF) 8-10 V; (Acetone) 6-8 V; (CPME) 330 V; (EtOAc) greater than 400 V; (IPA) 24-28 V; (IPAc) greater than 400 V. Besides, the “Solubility, Volume (at 10-20° C.)” value was 300-400 V (MeCN), 10-12 V (THF), greater than 400 V (Toluene) and 86-90 V (t-AmOH).

For `CCn1nc(Cl)c2c1-c1cnc(N)c(c1)O[C@H](C)c1cc(F)ccc1-c1nn(C)cc1C2` [Maleic Acid salt], the “Solubility, Volume (at 10-20° C.)” value is given as 50-60 V (2-MeTHF); 2-4 V (Acetone); 220 V (CPME); 20-30 V (EtOAc); 70-80 V (IPA); 20-30 V (IPAc). For the same compound, the “Solubility, Volume (at 10-20° C.)” value is listed as 16-20 V (MeCN), 2-4 V (THF), greater than 400 V (Toluene) and 6-8 V (t-AmOH).

Consider `CCn1nc(Cl)c2c1-c1cnc(N)c(c1)O[C@H](C)c1cc(F)ccc1-c1nn(C)cc1C2` [Fumaric Acid salt], for which the “Solubility, Volume (at 10-20° C.)” value reads like this: (2-MeTHF) 8-10 V; (Acetone) 8-10 V; (CPME) 50-60 V; (EtOAc) 80-90 V; (IPA) 8-9 V; (IPAc) 90-100 V. Besides, the “Solubility, Volume (at 10-20° C.)” value is, setting by setting: (MeCN) 150-200 V; (THF) 3-4 V; (Toluene) greater than 400 V; (t-AmOH) 22-24 V.

Turning to `CCn1nc(Cl)c2c1-c1cnc(N)c(c1)O[C@H](C)c1cc(F)ccc1-c1nn(C)cc1C2` [L-Tartaric Acid Salt], the “Solubility, Volume (at 10-20° C.)” value by setting is: (2-MeTHF) 4-6 V; (Acetone) 2-4 V; (CPME) 60-70 V; (EtOAc) 12-14 V; (IPA) 18-20 V; (IPAc) 52-56 V. The “Solubility, Volume (at 10-20° C.)” value is, setting by setting: (MeCN) 30-32 V; (THF) 8-10 V; (Toluene) greater than 400 V; (t-AmOH) 18-20 V.
